Measurements from PubChem BioAssay AID179 (DTP/NCI, 2004).
The source made the active and inactive calls.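 How the source made its calls: active means compounds giving half or more protection of infected cells from virus-caused growth loss, again on retest; inactive means the rest.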

Tested on: CEM cells HIV-1 protection, formazan growth assay
Assay: NCI AIDS Antiviral Assay
Details: for IC50: measured here: growth of uninfected CEM cells
Outline: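 Protection of CEM cells against HIV-1 measured as cell growth via soluble formazan read-out, with five concentrations tested on both infected and uninfected cells; failure to protect may reflect toxicity.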

Row | SMILES | EC50 | IC50 | outcome
1 | CCOC(=O)CC(=O)N(c1ccc(OC)cc1)C(C(=O)OC)c1ccccc1 (centres undefined) | > 200 µM | 166 µM | 
2 | CN(C)CCCN1C(=O)C2CCC(C)(C1=O)C2(C)C (centres undefined) | > 832 µM | 12.9 µM | 
3 | C=Cc1cc[n+](CCCCCC[n+]2ccc(C=C)cc2)cc1 | > 200 µM | > 200 µM | 
4 | CC(C)CCC(=O)c1ccoc1 | > 1510 µM | > 1510 µM | 
5 | Cc1c(C#N)c2nnn(-c3ccccc3)c(=O)n2c1-c1ccccc1 | > 200 µM | 1.02 µM | 
6 | COC(=O)CNS(=O)(=O)c1ccc(-c2c3nc(c(-c4ccc(S(=O)(=O)NCC(=O)OC)cc4)c4ccc([nH]4)c(-c4ccc(S(=O)(=O)NCC(=O)OC)cc4)c4nc(c(-c5ccc(S(=O)(=O)NCC(=O)OC)cc5)c5ccc2[nH]5)C=C4)C=C3)cc1 | > 100 µM | > 100 µM | 
7 | Cc1cccc(Nc2nc3ccccc3nc2NS(=O)(=O)c2ccccc2)c1 | > 100 µM | 15.5 µM | 
8 | COC(=O)C1NC(C)(C(=O)OC)C2C(=O)NC(=O)C12 (centres undefined) | > 933 µM | > 933 µM | 
9 | O=c1c(Cl)c(N2CCOCC2)cnn1-c1ccccc1 | > 234 µM | 209 µM | 
10 | CNc1cc([N+](=O)[O-])ccc1C(=O)N1CCC[C@H]1CO | > 200 µM | > 200 µM | 
11 | CC(C)(C)C1CCC(C[Se]c2ccccc2)([N+](=O)[O-])CC1 (centres undefined) |  |  | inactive
12 | CC(=O)N1C(=O)C(=O)c2cc(Cl)ccc21 |  |  | inactive
13 | CCCCCOC(=S)SSSC(=S)OCCCCC | > 200 µM | 7.76 µM | 
14 | CCOC(=O)C1=C(C)C2C3C(=O)NC(=O)C3C1(C)C1C(=O)NC(=O)C21 (centres undefined) | > 724 µM | > 724 µM | 
15 | CC(=O)C1C(=O)C(=O)N(c2ccccc2N2C(=O)C(=O)C(C(C)=O)C2=O)C1=O (centres undefined) |  |  | inactive
16 | COC(=O)C(Cc1nc2ccc(Cl)cc2[nH]c1=O)C(=O)C(=O)Nc1cc(C)ccc1C (centres undefined) | > 214 µM | > 214 µM | 
17 | N#Cc1ccc(-c2nc(C#N)c(N)o2)cc1 | 135 µM | > 200 µM | 
18 | OC1(c2ccccc2)C2CCN(CC2)C1CN1CCOCC1 (centres undefined) | > 200 µM | > 200 µM | 
19 | CCCC(=O)c1ccc2c(ccc(=O)n2C)c1 | > 112 µM | 102 µM | 
20 | O=S(=O)(O)C(C(I)I)S(=O)(=O)O | > 200 µM | > 200 µM | 
21 | CCOC(=O)C(CS)NC(=O)CCCCCCCC(=O)NC(CS)C(=O)OCC (centres undefined) | > 200 µM | 102 µM | 
22 | COC(=O)/C=C\C(C#N)(C#N)N=Cc1sccc1C | 0.11 µM | 0.398 µM | 

Row | SMILES | EC50 | IC50 | outcome
23 | Cc1nnc(N)s/c1=N/O | > 200 µM | > 200 µM | 
24 | O=C(CCCN1CCN(c2ccccn2)CC1)c1ccc(F)cc1 | > 132 µM | 72.4 µM | 
25 | COC12OC3(C4OC41)C(C(=O)O[C@H]3CO)C2S(=O)(=O)c1ccccc1 (some centres undefined) | > 200 µM | > 200 µM | 
26 | O=C(O)c1c(O)c2cc(Br)ccc2oc1=O | > 200 µM | 120 µM | 
27 | Cc1ccc(C(CO)(CO)OC(CO)(CO)c2ccc(C)c(C)c2)cc1C | > 200 µM | > 200 µM | 
28 | CO[C@@]12CC(=O)/C(=C(O)\C=C\c3ccccc3)C(=O)[C@]1(O)Cc1ccccc1O2 | > 316 µM | 42.7 µM | 
29 | COc1cc2c3c(c1)nc(C)n3C(=O)CS2 | > 200 µM | > 200 µM | 
30 | C#CCN(Cc1ccc2nc(-c3ccccc3)c(Cl)nc2c1)c1cc(OC)c(OC)c(OC)c1 | > 7.94 µM | > 7.94 µM | 
31 | Cc1ccc(S(=O)(=O)C(CC(=O)N2CCCC2)C(=O)c2ccccc2)cc1 (centres undefined) | > 93.3 µM | 15.5 µM | 
32 | CC(C)=CCN1c2ccccc2[C@@]2(CC=C(C)C)CCN(C)[C@@H]12 | > 200 µM | 33.1 µM | 
33 | CCC(Oc1ccc(OC)c2c1C(=O)CCC2)C(=O)O (centres undefined) |  |  | inactive
34 | Cc1cc(Br)ccc1N=Nc1c(C)nn(-c2ccccc2)c1-c1ccccc1 |  |  | inactive
35 | O=C(Nc1c(Cl)cc([N+](=O)[O-])cc1Cl)C(=O)C(C1OC(=O)c2ccccc21)[N+](=O)[O-] (centres undefined) | > 57.5 µM | > 57.5 µM | 
36 | O=C(NCCCl)N(O)C(=O)Nc1ccccc1 | > 200 µM | 126 µM | 
37 | COC(=O)NC(Nc1ccccn1)(C(F)(F)F)C(F)(F)F | > 200 µM | > 200 µM | 
38 | O=C(CCCN1CCC2(CC1)C(=O)NC(=O)N2c1ccccc1)c1ccc(F)cc1 | > 200 µM | > 200 µM | 
39 | O=C1C(N=Nc2ccc(Cl)cc2)Sc2nc3ccccc3n21 (centres undefined) |  |  | inactive
40 | O=S(=O)(F)c1ccccc1C[P+](c1ccccc1)(c1ccccc1)c1ccccc1 | > 200 µM | 17.8 µM | 
41 | O=P1(OCC(F)(F)C(F)F)Oc2ccccc2O1 | > 41.7 µM | 3.24 µM | 
42 | C/C(O)=C(\C=N\C(=S)Nc1ccccc1)C(=O)Nc1ccc(Cl)cc1 |  |  | inactive
43 | O=C(NNC(=O)c1cc(/C=C/c2cccc([N+](=O)[O-])c2)[nH]c(=S)n1)Nc1ccc(Cl)cc1 | > 11 µM | > 11 µM | 
44 | [Ni+2].[O-]/C(=N\N=C\c1ccccn1)c1ccccc1O.[O-]/C(=N\N=C\c1ccccn1)c1ccccc1O | > 200 µM | 6.17 µM | 

Row | SMILES | EC50 | IC50 | outcome
45 | CC1CC[C@]2(C(=O)O)CCC3(C)C(=C2[C@H]1C)C=CC1[C@@]2(C)CC[C@H](O)C(C)(C)C2CC[C@]13C (some centres undefined) | > 100 µM | > 100 µM | 
46 | Nc1nc(Cl)cc(NCC2(O)CCC2)n1 | > 200 µM | > 200 µM | 
47 | CC(=O)OC1SC(OC(C)=O)C2OC(=O)OC12 (centres undefined) | > 871 µM | 155 µM | 
48 | COc1cc(CNC(=S)CCCCCCCCCCC(C)C)ccc1O |  |  | inactive
49 | COC(=O)C1=Cc2cc(OC)c(O)cc2[C@@H](c2ccc(O)c(OC)c2)[C@@H]1C(=O)OC | > 200 µM | 77.6 µM | 
50 | Cc1cc2c(-c3ccccc3)cc(=O)[nH]c2cc1N | 186 µM | > 200 µM | 
51 | c1onc2c1CCCC2 (tested in a mixture with another compound) | > 1620 µM | > 1620 µM | 
52 | CNS(=O)(=O)NNS(=O)(=O)c1ccc(OC)cc1 | > 617 µM | 324 µM | 
53 | C1=C\C=C\C2OC2/C=C/1 (centres undefined) | > 224 µM | 112 µM | 
54 | COC(=Nc1ccccc1)SSC(C)C | > 200 µM | 2.82 µM | 
55 | CN1C(=O)N(C)C2(O)c3ccccc3C(=O)C12O (centres undefined) | > 1000 µM | > 1000 µM | 
56 | CN1C2c3ccccc3C3C4c5ccccc5C(C31)C(C2[N+](=O)[O-])N4C (centres undefined) | > 43.7 µM | 27.5 µM | 
57 | C/C=C/C=Nc1c(C#N)c2n(c1C(=O)Nc1ccc(S(N)(=O)=O)cc1)CCC2 | > 200 µM | 11 µM | 
58 | COc1ccc(-c2c(C#N)cnc(C)c2C)c(O)c1OC | > 631 µM | 115 µM | 
59 | O=C(OC[C@]12OC1C=C[C@H](OC(=O)c1ccccc1)C2O)c1ccccc1 (some centres undefined) | > 24.5 µM | 23.4 µM | 
60 | COC(=O)C(CNC(=O)/C=C/c1ccc(OC)c(OC)c1)NC(=O)/C=C/c1ccc(OC)c(OC)c1 (centres undefined) | > 200 µM | 135 µM | 
61 | N#Cc1sc2c(c1OC(=O)c1ccccc1)c(=O)n(-c1ccccc1)c(=S)n2-c1ccccc1 | > 200 µM | 2.34 µM | 
62 | CCOc1cc(/C=C2\N=C(c3ccccc3)OC2=O)ccc1O | > 23.4 µM | > 23.4 µM | 
63 | Cn1c(=O)cc(/C=C/c2ccnc3ccccc23)c2ccccc21 | > 200 µM | > 200 µM | 
64 | N.N.N.N.O=N[O-].O=N[O-].[Cl-].[Co+3] |  |  | inactive
